Measured values: US9365574B2, “Soluble guanylate cyclase activators” (Merck Sharp & Dohme Corp., priority 2010, dated 2016)

Columns and labels:
sGC = molecular target: T1, sGC (Homo sapiens, UniProt Q02108+Q02153); assay: Cell-based sGC Functional Assay (CASA Assay), cGMP generation in CHO-K1/sGC cells; settings: without ODQ incubation; for EC50: read-out: inflection points (IP)
T1 construct: expressed in transfected cells; host or cells: CHO-K1 (clone #7, CHO-K1/sGC)
T1 sequence (Q02108 1-690): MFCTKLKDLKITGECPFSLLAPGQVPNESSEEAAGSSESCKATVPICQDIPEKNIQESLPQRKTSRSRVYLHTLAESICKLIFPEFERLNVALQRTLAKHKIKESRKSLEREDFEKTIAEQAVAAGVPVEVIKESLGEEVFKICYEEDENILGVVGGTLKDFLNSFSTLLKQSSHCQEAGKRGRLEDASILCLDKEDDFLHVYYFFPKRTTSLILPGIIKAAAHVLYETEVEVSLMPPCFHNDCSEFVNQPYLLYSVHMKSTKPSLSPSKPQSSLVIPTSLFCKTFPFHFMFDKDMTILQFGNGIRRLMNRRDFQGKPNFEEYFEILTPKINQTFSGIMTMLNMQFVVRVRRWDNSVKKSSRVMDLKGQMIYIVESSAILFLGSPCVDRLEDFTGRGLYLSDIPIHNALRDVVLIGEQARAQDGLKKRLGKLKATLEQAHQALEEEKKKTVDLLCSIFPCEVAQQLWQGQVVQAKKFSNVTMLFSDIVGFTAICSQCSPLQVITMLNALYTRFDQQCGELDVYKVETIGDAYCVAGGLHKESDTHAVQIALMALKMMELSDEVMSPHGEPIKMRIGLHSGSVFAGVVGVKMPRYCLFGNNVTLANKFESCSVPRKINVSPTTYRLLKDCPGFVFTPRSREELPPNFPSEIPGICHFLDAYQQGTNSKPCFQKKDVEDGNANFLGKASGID
T1 sequence (Q02153 1-619): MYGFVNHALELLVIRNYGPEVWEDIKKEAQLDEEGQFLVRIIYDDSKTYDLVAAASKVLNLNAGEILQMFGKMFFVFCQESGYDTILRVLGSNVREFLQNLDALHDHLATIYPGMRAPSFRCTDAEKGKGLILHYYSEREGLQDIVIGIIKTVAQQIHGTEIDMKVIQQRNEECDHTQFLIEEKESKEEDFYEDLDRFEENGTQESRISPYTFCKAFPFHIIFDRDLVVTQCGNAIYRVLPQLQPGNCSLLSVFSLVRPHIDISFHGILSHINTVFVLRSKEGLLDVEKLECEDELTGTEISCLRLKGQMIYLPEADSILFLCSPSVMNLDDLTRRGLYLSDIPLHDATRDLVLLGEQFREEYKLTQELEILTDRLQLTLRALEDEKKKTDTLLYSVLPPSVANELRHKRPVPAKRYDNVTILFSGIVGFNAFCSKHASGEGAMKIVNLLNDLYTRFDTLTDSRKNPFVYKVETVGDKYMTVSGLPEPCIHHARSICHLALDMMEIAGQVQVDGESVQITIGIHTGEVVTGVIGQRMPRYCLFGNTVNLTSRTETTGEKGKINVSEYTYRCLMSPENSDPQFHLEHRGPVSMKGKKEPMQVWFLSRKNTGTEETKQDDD
Text: Cell-based sGC Functional Assay (CASA Assay)
sGC is a heme-containing enzyme that converts GTP to secondary messenger cGMP. Increases in cGMP levels affect several physiological processes including vasorelaxation through multiple downstream pathways. […] Heme-dependent activators (HDAs) preferentially activate sGC containing a ferrous heme group. To determine the effect of sGC activators on enzyme activity, the CASA assay was developed to monitor the generation of cGMP in a cell line that stably expresses the heterodimeric sGC protein.
A CHO-K1 cell line stably expressing the sGC a up heterodimer was generated using a standard transfection protocol. CHO-K1 cells were transfected with plasmids pIREShyghsGCα1 and pIRESneo-hsGCβ1 simultaneously using FUGENE reagent. Clones that stably express both subunits were selected with hygromycin and neomycin for weeks. Clone #7 was chosen for the assay and was designated CHO-K1/sGC. CHO-K1/sGC cells were maintained in F-K12 medium containing 10% heat-inactivated Fetal Bovine Serum (FBS), 100 μg/mL penicillin/streptomycin, 0.5 mg/mL hygromycin and 0.25 mg/mL G418. On the day of the assay, cells were harvested in EBSS Assay Buffer (EAB) containing 5 mM MgCl2, 10 mM HEPES (4-(2-hydroxyethyppiperazine-1-ethanesulfonic acid) and 0.05% BSA (bovine serum albumin) and cell density was adjusted to 2×10^6/mL with EAB. IBMX (3-isobutyl-1-methylxanthin, 0.5 mM) was added to inhibit degradation of cGMP. Compounds were diluted from DMSO stock solutions and added to the assay at a final DMSO concentration of 1%. Cells were incubated with compounds in the presence and absence of 10 μM of 1H-(1,2,4)oxadiazolo(4,3-a) quinoxalin-1-one (ODQ) for 1 hr at 37° C. At the end of the incubation period, the reaction was terminated and the cells were lysed. The level of intracellular cGMP was determined using an HTRF-based assay kit (CisBio, 62GM2PEC), which detects the displacement of a fluorescence labeled cGMP from its specific antibody. The amount of cGMP was plotted against compound concentration in PRISM software and the IP and maximum fold induction over DMSO control were derived from the plot.

[1] = system: Spontaneously hypertensive rats (SHR); assay: Acute Efficacy in Spontaneously Hypertensive Rats (SHR), telemetry blood pressure; assay type: in vivo, rat
In short: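 Male SHR with aortic telemetry catheters, 14-day recovery, conscious and freely moving; single oral gavage in 10% transcutol/20% Cremophor/70% water. BP sampled 30 s every 10 min, hourly averages minus prior-day vehicle baseline; value is maximum peak SBP decrease at stated mg/kg PO dose.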

| Structure (SMILES) | Maximum peak decrease of systolic blood pressure (SBP) in SHR, Category ([1]; single oral dose 0.3 mpk P.O.) | other results |
| --- | --- | --- |
| CC1(c2ccccc2)C(=O)Nc2nc(-n3nc(CCC(F)(F)C(F)(F)F)c4cc(Cl)ccc43)nc(N)c21 (centres unmarked) [Example 2, 4-Amino-2-[5-Chloro-3-(3,3,4,4,4-Pentafluorobutyl)-1H-Indazol-1-yl]-5-Methyl-5-Phenyl-5,7-Dihydro-6H-Pyrrolo[2,3-D]Pyrimidin-6-One] | – | Maximum fold induction over DMSO control (sGC): 133; EC50 (sGC): 114 nM |
| CC1(c2ccccc2)C(=O)Nc2nc(-n3nc(CCC(F)(F)C(F)(F)F)c4cc(F)ccc43)nc(N)c21 (centres unmarked) [Example 26, 4-amino-2-[5-fluoro-3-(3,3,4,4,4-pentafluorobutyl)-1H-indazol-1-yl]-5-methyl-5-phenyl-5,7-dihydro-6H-pyrrolo[2,3-d]pyrimidin-6-one] | – | Maximum fold induction over DMSO control (sGC): 156; EC50 (sGC): 212 nM |
| CC1(c2ccccc2)C(=O)Nc2nc(-c3nn(CCC(F)(F)C(F)(F)F)c4cc(Cl)ccc34)nc(N)c21 (centres unmarked) [Example 58, 4-Amino-2-[6-Chloro-1-(3,3,4,4,4-Pentafluorobutyl)-1H-Indazol-3-yl]-5-Methyl-5-Phenyl-5,7-Dihydro-6H-Pyrrolo[2,3-D]Pyrimidin-6-One] | – | Maximum fold induction over DMSO control (sGC): 225; EC50 (sGC): 50 nM |
| CNc1nc(-c2nc(CCC(F)(F)C(F)(F)F)n3ncccc23)nc2c1C(C)(C(=O)NC1CC1)C(=O)N2 (centres unmarked) [Example 260, N-cyclopropyl-5-methyl-4-(methylamino)-6-oxo-2-[7-(3,3,4,4,4-pentafluorobutyl)imidazo[1,5-b]pyridazin-5-yl]-6,7-dihydro-5H-pyrrolo[2,3-d]pyrimidine-5-carboxamide] | B (Category B=SBP in SHRs 25-40 mmHg) | – |
| CNc1nc(-c2nn(CCC(F)(F)C(F)(F)F)c3ncccc23)nc2c1C(C)(c1nnc(C3CC3)o1)C(=O)N2 (centres unmarked) [Example 261, 5-(5-cyclopropyl-1,3,4-oxadiazol-2-yl)-5-methyl-4-(methylamino)-2-[1-(3,3,4,4,4-pentafluorobutyl)-1H-pyrazolo[3,4-b]pyridin-3-yl]-5,7-dihydro-6H-pyrrolo[2,3-d]pyrimidin-6-one] | C (Category C=SBP in SHRs>40 mmHg) | – |
| CNc1nc(-c2nn(CCC(F)(F)C(F)(F)F)c3ncccc23)nc2c1C(C(=O)NC1CC1)(C1CC1)C(=O)N2 (centres unmarked) [Example 262, N,5-dicyclopropyl-4-(methylamino)-6-oxo-2-[1-(3,3,4,4,4-pentafluorobutyl)-1H-pyrazolo[3,4-b]pyridin-3-yl]-6,7-dihydro-5H-pyrrolo[2,3-d]pyrimidine-5-carboxamide] | A (Category A=SBP in SHRs<25 mmHg) | – |
| CNc1nc(-c2nn(CCC(F)(F)F)c3ncccc23)nc2c1C(C)(C(=O)NC1CC1)C(=O)N2 (centres unmarked) [Example 263, N-cyclopropyl-5-methyl-4-(methylamino)-6-oxo-2-[1-(3,3,3-trifluoropropyl)-1H-pyrazolo[3,4-b]pyridin-3-yl]-6,7-dihydro-5H-pyrrolo[2,3-d]pyrimidine-5-carboxamide] | A (Category A=SBP in SHRs<25 mmHg) | – |
| CNc1nc(-c2nn(CCCC(F)(F)F)c3ncccc23)nc2c1C(C)(C(=O)NC1CC1)C(=O)N2 (centres unmarked) [Example 264, N-cyclopropyl-5-methyl-4-(methylamino)-6-oxo-2-[1-(4,4,4-trifluorobutyl)-1H-pyrazolo[3,4-b]pyridin-3-yl]-6,7-dihydro-5H-pyrrolo[2,3-d]pyrimidine-5-carboxamide] | B (Category B=SBP in SHRs 25-40 mmHg) | – |
| CN(C)C(=O)C1(C)C(=O)Nc2nc(-n3nc(CCC(F)(F)C(F)(F)F)c4cc(Cl)ccc43)nc(N)c21 (centres unmarked) [Example 265, 4-amino-2-[5-chloro-3-(3,3,4,4,4-pentafluorobutyl)-1H-indazol-1-yl]-N,N,5-trimethyl-6-oxo-6,7-dihydro-5H-pyrrolo[2,3-d]pyrimidine-5-carboxamide] | – | Maximum peak decrease of systolic blood pressure (SBP) in SHR, Category ([1]; single oral dose 1 mpk P.O.): C (Category C=SBP in SHRs>40 mmHg) |
| CC1(C(=O)NC2CC2)C(=O)Nc2nc(-n3nc(CCC(F)(F)C(F)(F)F)c4ncccc43)nc(N)c21 (centres unmarked) [Example 266, 4-amino-N-cyclopropyl-5-methyl-6-oxo-2-[3-(3,3,4,4,4-pentafluorobutyl)-1H-pyrazolo[4,3-b]pyridin-1-yl]-6,7-dihydro-5H-pyrrolo[2,3-d]pyrimidine-5-carboxamide] | C (Category C=SBP in SHRs>40 mmHg) | – |
| CC1(C(=O)NC2CC2)C(=O)Nc2nc(-c3nn(CCC(F)(F)C(F)(F)F)c4ncc(Cl)cc34)nc(N)c21 (centres unmarked) [Example 267, 4-amino-2-[5-chloro-1-(3,3,4,4,4-pentafluorobutyl)-1H-pyrazolo[3,4-b]pyridin-3-yl]-N-cyclopropyl-5-methyl-6-oxo-6,7-dihydro-5H-pyrrolo[2,3-d]pyrimidine-5-carboxamide] | B (Category B=SBP in SHRs 25-40 mmHg) | – |
| CC1(C(=O)NC2CC2)C(=O)Nc2nc(-c3nn(CCC(F)(F)C(F)(F)F)c4ncc(Cl)cc34)nc(N)c21 (centres unmarked) [Example 268, 4-amino-2-[5-chloro-1-(3,3,4,4,4-pentafluorobutyl)-1H-pyrazolo[3,4-b]pyridin-3-yl]-N-cyclopropyl-5-methyl-6-oxo-6,7-dihydro-5H-pyrrolo[2,3-d]pyrimidine-5-carboxamide] | – | Maximum peak decrease of systolic blood pressure (SBP) in SHR, Category ([1]; single oral dose 0.1 mpk P.O.): B (Category B=SBP in SHRs 25-40 mmHg) |
| Cc1nnc(C2(C)C(=O)Nc3nc(-c4nn(CCC(F)(F)C(F)(F)F)c5ncc(Cl)cc45)nc(N)c32)o1 (centres unmarked) [Example 269, 4-amino-2-[5-chloro-1-(3,3,4,4,4-pentafluorobutyl)-1H-pyrazolo[3,4-b]pyridin-3-yl]-5-methyl-5-(5-methyl-1,3,4-oxadiazol-2-yl)-5,7-dihydro-6H-pyrrolo[2,3-d]pyrimidin-6-one] | C (Category C=SBP in SHRs>40 mmHg) | – |
| CC1(C(N)=O)C(=O)Nc2nc(-c3nc(CCC(F)(F)C(F)(F)F)c4ccccn34)nc(N)c21 (centres unmarked) [Example 270, 4-amino-5-methyl-6-oxo-2-[1-(3,3,4,4,4-pentafluorobutyl)imidazo[1,5-a]pyridin-3-yl]-6,7-dihydro-5H-pyrrolo[2,3-d]pyrimidine-5-carboxamide] | A (Category A=SBP in SHRs<25 mmHg) | – |
